Counter-ions that a name gives are not always drawn. A value given as a limit tells only on which side of the number the result lay.

Broadly, the Ki is a dissociation constant, usually derived from enzyme kinetics or from competition with a known ligand. Read a low Ki as tighter binding.

Chain of human FLAP (P20292 whole entry): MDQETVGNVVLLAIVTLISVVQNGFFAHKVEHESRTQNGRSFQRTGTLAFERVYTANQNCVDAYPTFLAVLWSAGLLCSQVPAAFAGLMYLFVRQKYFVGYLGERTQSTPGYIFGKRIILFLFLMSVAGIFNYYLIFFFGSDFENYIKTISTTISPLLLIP

The first assay addresses human FLAP (Homo sapiens (Human), UniProt P20292). As to the kind of experiment: FLAP binding assay (HTRF format). Conditions: human FLAP wild type, HTRF format; average of two plates, duplicates. The method in brief: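 Reported data take the mean of two different plates carrying duplicate samples and use the HTRF ratio as the measured signal.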
A general note: In TR-FRET formats the signal depends on donor and acceptor labels being close together.
The compound `Nc1cnc(-c2ccc(-c3ccccc3CSc3cccnn3)cc2F)cn1` [Example 239, 5-(3-Fluoro-2′-((pyridazin-3-ylthio)methyl)-[1,1′-biphenyl]-4-yl)pyrazin-2-amine hydrochloride] gave an inhibition constant Ki of 6 nM.

As to `CCS(=O)(=O)c1ccccc1-c1ccc(-c2cnc(N)cn2)c(F)c1` [Example 191, 5-[2′-(Ethylsulfonyl)-3-fluorobiphenyl-4-yl]pyrazin-2-amine], the affinity corresponds to a Ki of 658 nM.

The compound `CS(=O)(=O)c1ccccc1-c1ccc(-c2ncc(N)nc2C#N)c(F)c1` [Example 3, 6-Amino-3-[3-fluoro-2′-(methylsulfonyl)biphenyl-4-yl]pyrazine-2-carbonitrile] had a Ki of more than 10000 nM.

For the compound `CC(C)Sc1ncc(C(F)(F)F)cc1-c1ccc(-c2cnc3[nH]ccc3n2)c(F)c1` [Example 394, 2-(2-Fluoro-4-{2-[(1-methylethyl)sulfanyl]-5-(trifluoromethyl)pyridin-3-yl}phenyl)-5H-pyrrolo[2,3-b]pyrazine], the inhibition constant Ki is more than 10000 nM.

In the case of `CC(C)(C)S(=O)(=O)c1ccccc1-c1ccc(-c2cnc(N)nc2)c(F)c1` [Example 293, 5-[2′-(tert-Butylsulfonyl)-3-fluorobiphenyl-4-yl]pyrimidin-2-amine trifluoroacetic acid salt], the Ki was more than 10000 nM.

The assay is the same for the next values; noted with them: wild type FLAP, HTRF format.
`Nc1ncc(-c2ccc(-c3ccccc3S(=O)(=O)CC(=O)N3CCOCC3)cc2F)cn1` [Example 601, 5-{3-Fluoro-2′-[(2-morpholin-4-yl-2-oxoethyl)sulfonyl]biphenyl-4-yl}pyrimidin-2-amine]: the Ki was more than 10000 nM.

`C[C@H](NC(=O)c1ccccc1-c1ccc(-c2cnc(N)nc2)c(F)c1)C(F)(F)F` [Example 504, 4′-(2-Aminopyrimidin-5-yl)-3′-fluoro-N-[(1S)-2,2,2-trifluoro-1-methylethyl]biphenyl-2-carboxamide] yielded an inhibition constant (Ki) of 768 nM. This counts as sub-micromolar.

`Nc1cnc(-c2ccc(-c3ccccc3S(=O)(=O)N3CCOCC3)cc2)cn1` [Example 573, 5-[2′-(Morpholin-4-ylsulfonyl)biphenyl-4-yl]pyrazin-2-amine] showed an inhibition constant (Ki) of 114 nM.

`Nc1cnc(-c2ccc(-c3ccccc3C(=O)N3CC(O)C3)cc2F)cn1` [Example 755, 1-{[4′-(5-Aminopyrazin-2-yl)-3′-fluorobiphenyl-2-yl]carbonyl}azetidin-3-ol] gave a Ki of 940 nM.

As to `CS(=O)(=O)c1ccccc1-c1ccc(-c2cnc(N)cn2)cc1` [Example 589, 5-[2′-(Methylsulfonyl)biphenyl-4-yl]pyrazin-2-amine], the inhibition constant Ki is more than 10000 nM.

`CC(O)C1CN(C(=O)c2ccccc2-c2ccc(-c3cnc(N)nc3)c(F)c2)CCO1` (mixture of isomers) [Example 759, 1-(4-{[4′-(2-Aminopyrimidin-5-yl)-3′-fluorobiphenyl-2-yl]carbonyl}morpholin-2-yl)ethanol (diastereomeric mixture)] returned an inhibition constant (Ki) of more than 10000 nM.

`Nc1ncc(-c2ccc(-c3cccnc3N)cc2F)cn1` [Example 409, 5-[4-(2-Aminopyridin-3-yl)-2-fluorophenyl]pyrimidin-2-amine] displayed a Ki of more than 10000 nM.

`Nc1ncc(-c2ccc(-c3ccccc3C(=O)N3CC[C@@H](O)C3)cc2F)cn1` [Example 770, (3R)-1-{[4′-(2-Aminopyrimidin-5-yl)-3′-fluorobiphenyl-2-yl]carbonyl}pyrrolidin-3-ol] yielded a Ki of more than 10000 nM.

Compound `CC1CN(C(=O)c2ccccc2-c2ccc(-c3cnc(N)nc3)c(F)c2)CC(C)O1` (mixture of isomers) [Example 780, 5-{2′-[(2,6-Dimethylmorpholin-4-yl)carbonyl]-3-fluorobiphenyl-4-yl}pyrimidin-2-amine (Diastereoisomeric Mixture)] registered an inhibition constant (Ki) of more than 10000 nM.

The compound `CC(C)c1ccccc1-c1ccc(-c2cnc(N)cn2)c(F)c1` [Example 482, 5-[3-Fluoro-2′-(1-methylethyl)biphenyl-4-yl]pyrazin-2-amine] displayed a Ki of 120 nM.

Turning to `Nc1cnc(-c2ccc(-c3ccccc3C(=O)N3CC[C@H](O)C3)cc2F)cn1` [Example 771, (3S)-1-{[4′-(5-Aminopyrazin-2-yl)-3′-fluorobiphenyl-2-yl]carbonyl}pyrrolidin-3-ol], the inhibitory constant (Ki) is more than 10000 nM.

`Nc1cnc(-c2ccc(-c3ccccc3S(N)(=O)=O)cc2)cn1` [Example 594, 4′-(5-Aminopyrazin-2-yl)biphenyl-2-sulfonamide] had an inhibition constant Ki of more than 10000 nM.

Regarding `NC(=O)c1ccccc1-c1ccc(-c2cnc(N)cn2)c(F)c1` [Example 486, 4′-(5-Aminopyrazin-2-yl)-3′-fluorobiphenyl-2-carboxamide], the Ki is 2500 nM.

With `CC(=O)N1CCN(C(=O)c2ccccc2-c2ccc(-c3cnc(N)cn3)c(F)c2)CC1` [Example 507, 5-{2′-[(4-Acetylpiperazin-1-yl)carbonyl]-3-fluorobiphenyl-4-yl}pyrazin-2-amine], the inhibition constant (Ki) is more than 10000 nM.

Compound `C[C@H](CO)Oc1ncccc1-c1ccc(-c2cnc(N)nc2)c(F)c1` [Example 658, (2I)-2-({3-[4-(2-Aminopyrimidin-5-yl)-3-fluorophenyl]pyridin-2-yl}oxy)propan-1-ol] yielded a Ki of 572 nM.

`Nc1ncc(-c2ccc(-c3ccc(C(F)(F)F)cc3C(=O)N3CCC(O)CC3)cc2F)cn1` [Example 796, [2-[4-(2-Aminopyrimidin-5-yl)-3-fluoro-phenyl]-5-(trifluoromethyl)phenyl]-(4-hydroxy-1-piperidyl)methanone] returned a Ki of 391 nM.

`Nc1cnc(S(=O)(=O)c2ccccc2-c2ccc(-c3cnc(N)nc3)c(F)c2)cn1` [Example 723, 5-{2′-[(5-Aminopyrazin-2-yl)sulfonyl]-3-fluorobiphenyl-4-yl}pyrimidin-2-amine] returned a Ki of more than 10000 nM.

Compound `Nc1cnc(-c2ccc(-c3ccccc3N3CCNC3=O)cc2F)cn1` [Example 702, 1-(4′-(5-Aminopyrazin-2-yl)-3′-fluoro-[1,1′-biphenyl]-2-yl)imidazolidin-2-one] gave an inhibition constant (Ki) of approximately 304 nM.

As for `CN(C)S(=O)(=O)c1ccccc1-c1ccc(-c2cnc(N)cn2)cc1` [Example 572, 4′-(5-Aminopyrazin-2-yl)-N,N-dimethylbiphenyl-2-sulfonamide], the Ki worked out at 370 nM. This lies in the sub-micromolar range.

Compound `Nc1cnc(-c2ccc(-c3cccnc3C(=O)N3CCOCC3)cc2F)cn1` [Example 783, 5-{2-Fluoro-4-[2-(morpholin-4-ylcarbonyl)pyridin-3-yl]phenyl}pyrazin-2-amine] came in with a Ki of more than 10000 nM.

In turn, `Nc1ncc(-c2ccc(-c3ccccc3C(=O)NC3CCC(O)CC3)cc2F)cn1` (mixture of isomers) [Example 765, (cis/trans) 4′-(2-Aminopyrimidin-5-yl)-3′-fluoro-N-(4-hydroxycyclohexyl)biphenyl-2-carboxamide] returned an inhibition constant Ki of more than 10000 nM.

As to `CC(O)C1CN(C(=O)c2ccccc2-c2ccc(-c3cnc(N)cn3)c(F)c2)CCO1` (mixture of isomers) [Example 758, 1-(4-{[4′-(5-Aminopyrazin-2-yl)-3′-fluorobiphenyl-2-yl]carbonyl}morpholin-2-yl)ethanol (Diastereomeric Mixture)], the Ki came to 557 nM.

`Nc1ncc(-c2ccc(-c3ccccc3C(=O)N3CCOC(CO)C3)cc2F)cn1` (racemic) [Example 799, racemic [2-[4-(2-Aminopyrimidin-5-yl)-3-fluoro-phenyl]phenyl]-[2-(hydroxymethyl)morpholin-4-yl]methanone] came in with a Ki of more than 10000 nM.

Values taken from patent publication US9079866B2, “Flap modulators” (JANSSEN PHARMACEUTICA NV, priority 2013, dated 2015).
